Several values for one entry are separate records, joined by “and”; a condition that tells them apart may be missing. Equal values may be shown once. Read-outs that look alike come from different tables or passages of the source.
Columns and labels:
[1] = tested on: Mammary gland MDA-MB-231 cells; assay: CyQUANT-NF proliferation assay, 48-h drug treatment; format: cell-based
Method: Since the BRG prodrugs are composed of WR1065 as one of the major constituents, assays were conducted to determine if factors reported to modulate the activity of amino acid and polyamine plasma membrane transport systems impacted the efficacy of 4SP65 or 1LP65 in selected cancer cell lines. HL60 cells were exposed to 4SP65 with up to 0.5 mM NaCl, MBA-MD-231 cells were tested in the presence and absence of medium supplemented with estradiol plus insulin (in the BulletKit™ for growth supplements for NHMECs), HCC38 cells were exposed to 4SP65 with and without 10 µM insulin added to the growth medium, and multiple cells lines were pretreated for 24 h with 1 mM DFMO prior to starting exposures to 4SP65.
(§1) The percentage of growth inhibition was calculated as follows: […]

[2] = tested on: Mammary gland HCC38 cells; assay: as above; format: cell-based; settings: for Relative cell inhibition: 99% confluent cells, 48 h
[3] = Solubility, storage and stability of 4SP65 and 1LP65; format: physicochemical
Method: prepared for use and that was not altered by the solvent used, heating up to 37 °C for up to 3 days, and shaking or rocking for up to 3 days at RT or 4°C. For experiment, an aliquot of drug was first mixed in medium, the solvent was removed and saved, and gel pieces were recovered, dried on a vacuum pump, […]
The difference in the starting weight of drug placed into solvent minus the weight of the residue after drying on a vacuum pump was considered to represent the amount of drug that went into solution. The amount of drug that was dissolved at a given time ranged from 40 to 61%, averaging 50.7 ± 8.1% (SD). The weight of the 4SP65 in solution was then used for diluting the drug to concentrations of 200 or 400 µM in supplemented RPMI or DMEM/F12 medium for routine treatment of cells. The dried residue was not used in the in vitro drug efficacy studies. The formation of a gel in the aqueous solvents tested was unexpected since […]
few free thiols in polymer arms of the PEG scaffold for cross-linking reactions to occur. However, unintended topical entanglements between polymer chains of multi-arm PEG-thiol molecules without disulfide formation have been reported (Tang and Bradley 2014 24860800). Aliquots of 4SP65 dissolved in FBS enriched medium has remained stable for >6 months while remnants of the original viscous polymer have maintained stability without any apparent loss of activity when stored for 60 […]
However, the bulk of the product was dissolved at 40 mM in DMSO and stored in aliquots at −80°C for future use once by further dilution in DMSO and then final dilution in medium for treatment of normal human epithelium and human cancer cell lines at working solutions of 4 mM or 400 µM drug. 1LP65 has maintained stability for six months in frozen aliquots but should be stable in DMSO at −80°C for two to three years based upon recommended storage conditions for cystamine dihydrochloride (Selleck Chemical product information), an analogous 225 Da compound with a disulfide bond and amine groups like 1LP65. […]

[4] = tested on: Strain-2 and Strain-3 NHMECs; format: cell-based; settings: for cell growth, % of control cell values: 500 µM
Excerpt: Normal human mammary epithelial cell (NHMEC) strains used to assess potential cytotoxicity of 4SP65 and 1LP65 were established from reduction mammoplasty tissue from a healthy donor (M99005 or ‘Strain-1’) ([53]) or purchased from ATCC (Manassas, VA, USA; batch#70043304 or ‘Strain-2’) or Cell Applications (San Diego, CA, USA; lot#1669 or ‘Strain-3’). Human cancer cell lines including HCC38, MDA-MB-231, A549, National Cancer Institute (NCI)-H460, NCI-H1437, NCI-H1975, DU145, LNCaP, PC3, PANC1, SKOV3, and HL60, which were free of Mycoplasma, were purchased from ATCC. HMESO1, PPMMill, and TOV21G cells, obtained from Dr. Brian Cunniff, were verified to be Mycoplasma negative using the LookOut® Mycoplasma PCR Detection Kit (Sigma-Aldrich) and to match previously annotated DNA fingerprints by the Vermont Integrative Genomics Resource DNA Analysis Facility.
To assess the effects of 4SP65 or 1LP65 on the growth of normal epithelium, experiments were performed using NHMEC strains from differing donors ([53]). Strain-1 NHMECs were plated at 5,000 cells/well in 24-well plates and allowed to reach 50% confluence before treatment with 0-150 µM 4SP65 for 48 h. Cell viability was determined using a hemocytometer and trypan blue exclusion assay. Two other NHMEC strains, exposed to 0-150 µM 4SP65 or 0-500 µM 1LP65 for 48 h, were handled in the same fashion except that viability of cells in 96-well plates was determined using CyQUANT dye. Due to the short life span of these NHMECs, standard curves were not generated and fluorescence readings were used as a surrogate marker of cell number ([54]).

[5] = tested on: Malignant pleural mesothelioma PPMMill cells; assay: cells; settings: for Fold increase in efficacy: drug alone ÷ drug in 4SP65-DDP combination
Method: as §1

[6] = tested on: Pancreas PANC-1 cells; assay: cells
Method: as §1

[7] = tested on: Promyelocytic HL-60 leukemia cells; format: cell-based
Method: as §1

[8] = 48-h treatment, amifostine ND = not definable up to 500 µM
[9] = 48-h treatment, amifostine ND = not definable up to 500 µM, read-out: LC50 (the source's name)
[10] = Strain-2 NHMECs, 48 h, read-out: IC50
[11] = Strain-3 NHMECs, 48 h, read-out: IC50
[12] = aqueous solvents/medium, remainder formed a gel
[13] = drug alone, 48 h, 4SP65/cisplatin study
[14] = drug alone, 48 h, 4SP65/cisplatin study, ND = not definable, highest concentration in parentheses

COCCOCCOCCOCCOCCOCCSSCCNCCCN.O=C(O)C(F)(F)F.O=C(O)C(F)(F)F [1LP65, m-PEG6-S-S-WR1065]
GI50 [1, 8]: 41.8 ± 5.9 µM
IC50 [1, 8]: 52.4 ± 4.8 µM
LC99 [1, 8]: 135 ± 6.6 µM
TGI [1, 8]: 76.4 ± 9.2 µM and 76.4 µM
CC50 [1, 9]: 110 ± 4.7 µM
Dose reduction value AMF ÷ 1LP65 ([1]; at GI50): 5.8 fold
GI50 [2, 8]: 36.5 ± 2.3 µM
IC50 [2, 8]: 47.3 ± 2.2 µM
LC99 [2, 8]: 83.9 ± 2.9 µM
TGI [2, 8]: 46.9 ± 2.5 µM
CC50 [2, 9]: 59.9 ± 2.9 µM
Dose reduction value AMF ÷ 1LP65 ([2]; at GI50): 2.1 fold
Dose reduction value AMF ÷ 1LP65 ([2]; at IC50): 5.8 fold
Dose reduction value AMF ÷ 1LP65 ([2]; at TGI): 5.4 fold
solubility [3]: soluble 100% DMSO or aqueous solution
time of maintained stability ([3]; frozen aliquots in DMSO at −80°C): six
IC50 [4, 10]: > 500 µM
IC50 ([4]; Strain-2 and Strain-3, read-out: average IC50 for the two normal cell strains): > 355 µM
cell growth, % of control cell values ([4]; Strain-2 cells, 48 h): 19.5%
IC50 [4, 11]: 210 µM
cell growth, % of control cell values ([4]; Strain-3 cells, 48 h): 12.5%

4-star-PEG-S-S-WR1065 [4SP65]
CC50 [1]: 9.2 ± 1.2 µM
IC50 [1, 8]: 4.7 ± 0.9 µM
LC99 [1, 8]: 11.0 ± 1.8 µM
TGI [1, 8]: 6.6 ± 1.0 µM and 6.6 µM
selectivity index ([1]; IC50 in NHMECs ÷ IC50 in MDA-MB-231, average): > 26
Dose reduction value 1LP65 ÷ 4SP65 ([1]; at GI50): 26 fold
Dose reduction value 1LP65 ÷ 4SP65 ([1]; at IC50): 15 fold
Dose reduction value 1LP65 ÷ 4SP65 ([1]; at LC50): 15 fold
Dose reduction value 1LP65 ÷ 4SP65 ([1]; at LC99): 14 fold
Dose reduction value 1LP65 ÷ 4SP65 ([1]; at TGI): 21 fold
fold increase in drug efficacy at the TGI level with hormones ([1]; insulin plus estradiol): ~4 fold
TGI ([1]; with insulin plus estradiol, 48 h): 1.2 µM
TGI ([1]; without hormones, 48 h (pilot experiment)): 4.6 µM
CC50 [2]: 6.8 ± 0.9 µM
GI50 [2, 8]: 1.3 ± 0.4 µM
IC50 [2, 8]: 4.1 ± 0.2 µM
LC99 [2, 8]: 11.9 ± 1.6 µM
TGI [2, 8]: 3.7 ± 0.3 µM
Relative cell inhibition ([2]; 10 µM 4SP65 alone): 3.4 ± 10.9%
Relative cell inhibition ([2]; 10 µM 4SP65 with 10 µM insulin): 42 ± 6.5%
selectivity index ([2]; IC50 in NHMECs ÷ IC50 in HCC38, average): > 31
Dose reduction value 1LP65 ÷ 4SP65 ([2]; at GI50): 28 fold
Dose reduction value AMF ÷ 4SP65 ([2]; at GI50): 60 fold
Dose reduction value 1LP65 ÷ 4SP65 ([2]; at IC50): 12 fold
Dose reduction value AMF ÷ 4SP65 ([2]; at IC50): 67 fold
Dose reduction value 1LP65 ÷ 4SP65 ([2]; at LC50): 8.8 fold
Dose reduction value 1LP65 ÷ 4SP65 ([2]; at LC99): 7.1 fold
Dose reduction value 1LP65 ÷ 4SP65 ([2]; at TGI): 13 fold
Dose reduction value AMF ÷ 4SP65 ([2]; at TGI): 69 fold
fold increase in drug efficacy with insulin ([2]; growth-arrested cells): 12.4 fold
highest level testable based upon maximum solubility in aqueous medium [3]: 150 µM
storage time with maintained stability without apparent loss of activity [3]: 60 months
time remained stable ([3]; aliquots dissolved in FBS enriched medium): > 6 months
amount of drug dissolved at a given time, average (SD) [3, 12]: 50.7 ± 8.1%
amount of drug dissolved at a given time, range [3, 12]: 40 to 61%
IC50 [4, 10]: > 150 µM
growth enhancement ([4]; Strain-2 and Strain-3 cells, 3 µM, 48 h): 162% ± 7%
growth relative to control cells ([4]; Strain-2 and Strain-3 cells, 9 µM, 48 h): 78% ± 12%
growth relative to control cells ([4]; Strain-2 and Strain-3 cells, 30 µM, 48 h): 52% ± 8%
growth relative to control cells ([4]; Strain-2 and Strain-3 cells, 90 µM, 48 h): 21% ± 4%
growth relative to control cells ([4]; Strain-2 and Strain-3 cells, 150 µM, 48 h): 8.7% ± 2%
IC50 [4, 11]: 76 ± 14 µM
GI50 [5, 8]: 6 ± 1.7 µM
IC50 [5, 8]: 7.4 ± 2 µM
LC99 [5, 8]: 14.8 ± 2.9 µM
TGI [5, 8]: 10.6 ± 3.0 µM
Fold increase in efficacy ([5]; at GI50): 1.3 (NS) fold
Fold increase in efficacy ([5]; at IC50): 1.3 (NS) fold
Fold increase in efficacy ([5]; at LC50, GoE = gain of effect): 1.3 (NS) fold
Fold increase in efficacy ([5]; at LC99, GoE = gain of effect): 1.3 (NS) fold
Fold increase in efficacy ([5]; at TGI, GoE = gain of effect): 1.3 (NS) fold
GI50 [5, 13]: 8.4 ± 1.5 µM
IC50 [5, 13]: 10 ± 1.9 µM
LC99 [5, 14]: 17.6 ± 3.5 µM
TGI [5, 14]: 14.1 ± 3.3 µM
CC50 [6]: 5 ± 0.3 µM
GI50 [6, 8]: 2.8 ± 0.6 µM
IC50 [6, 8]: 3.7 ± 0.6 µM
LC99 [6, 8]: 7.0 ± 0.5 µM
TGI [6, 8]: 4.0 ± 0.4 µM
Dose reduction value AMF ÷ 4SP65 ([6]; at GI50): 39 fold
CC50 [7]: 7.5 ± 2.1 µM
GI50 ([7]; 48-h treatment): 1.9 ± 0.6 µM
IC50 ([7]; 48-h treatment): 4.4 ± 0.9 µM
LC99 ([7]; 48-h treatment): 10.2 ± 3.4 µM
TGI ([7]; 48-h treatment): 4.7 ± 0.7 µM and 4.7 µM
